Source: patent US9127045B2, “Method of inhibiting bacterial growth and biofilm formation with natural quorum sensing peptides” (UNIVERSITY OF SOUTHERN CALIFORNIA, priority 2005, dated 2015)
Ends that are not written are not given here.

How the values were obtained:
S. mutans = assay: In vitro attachment assay to a smooth surface (Petri dish) with sucrose; format: cell-based; settings: CSP at 8 µg/mL for 10 minutes prior to one hour incubation on Petri dishes with sucrose; without CSP up to 51%; FIG. 9
Protocol: The bacteria were grown in liquid cultures to the desired optical density. 20 ml of the cultures were then transferred into Petri dishes and sucrose added to the final concentration of 2%. The incubation was resumed for one hour, after which the liquid fraction was withdrawn and the fresh medium was added into which the layer of attached cells was scraped. The percentage of the attached bacteria was determined as the ratio of the optical densities of the attached to the total (a sum of attached and unattached) bacteria.
Synthetic CSP was dissolved in water to the concentration of 1 mg/mL as described in Li, Y-H et al., J. of Bact., 183:897-908 (2001). The cultures were grown in Todd Hewitt Broth (THB) supplemented with 5% horse serum. CSP was added to the cultures at the time of diluting the overnight culture (time zero of the culture growth) to a designated concentration between 1 and 8 mcg/mL. The incubation then continued up to the optical density where the expression of GTF is maximal (OD 650=0.1). The cultures where then collected and used in Western blotting with anti-glucosyltransferase (gtf) antibody. […]
An in vitro assay was performed to determine whether CSP can inhibit the attachment of S. mutans to a smooth surface. When sucrose was added to the medium, the wild-type S. mutans readily attached to the surface of a Petri dish. […]

gtfB gene of S. mutans = assay: Transcriptional fusion assay (gtfB promoter-luciferase); format: cell-based
Text: The fusion constructs and the transcription assay were previously described (Goodman, S. D. and Gao, Q., Plasmid 43:85-98 (2000)). Briefly, the constructs comprised the upstream regions of the gtfB and gtfC genes fused to the promoterless coding sequence of the firefly luciferase gene and inserted into the plasmid vector pVA838, a shuttle plasmid capable of propagating in both E. coli and S. mutans marked with erythromycin resistance. The plasmids were introduced into S. mutans GS5 by electroporation and the resulting erythromycin resistant strains were grown in liquid cultures and collected at various optical densities. The reporter gene (luciferase) expression was detected by measuring luminescence upon the addition of luciferin (the substrate for luciferase), see Goodman, S. D. and Gao Q. Plasmid 42:154-157 (1999), incorporated herein by reference.
(§1) Synthetic CSP was dissolved in water to the concentration of 1 mg/mL as described in Li, Y-H et al., J. of Bact., 183:897-908 (2001). […]
The transcriptional fusion assay was performed to determine whether CSP inhibits the expression of the gtfB gene of S. mutans. […] When the expression peaked at the end of the lag phase prior to the exponential growth, the cells were challenged with increasing concentrations of CSP for an incubation period of 10 minutes and assessed for luminescence, the measure of reporter gene expression. […]

FTF expression = assay: Western blot of FTF expression (control) after addition of CSP; format: cell-based, S. mutans; settings: same blot, antibody specific to FTF; FIG. 7 panel 2
Protocol: (§2) For the Western blotting, the bacteria were incubated to the desired optical density, subjected to the freeze-thaw cycle and mixed with the sample loading buffer. The samples were heated at 100° C. for 15 minutes and subjected to the PAGE. The number of cells per lane of the gel was kept constant at 10^8 cells. The western blotting was performed in accordance with a standard procedure (Sambrook, J. and Russel D. W. Molecular Cloning, a laboratory manual, 3rd ed. Cold Spring Harbor Laboratory Press, NY, 2001). Briefly, after PAGE the samples were transferred onto the nitrocellulose membrane and the latter subjected to the standard ELISA procedure. The anti-GTFB mouse monoclonal antibody was previously characterized (Fukushima, K., Okada, T., Ochiai, K., Infection and Immunity 61:323-328 (1993), incorporated herein by reference). The secondary antibody (HRP-linked goat anti-mouse) and the detection reagents were purchased from Cell Signaling Technology (Beverly, Mass.).
as §1
(§3) A Western blot analysis was performed to determine the effect of CSP on the level of GTFB expression. […] As a control, the same blot was analyzed with antibody specific to FTF, where it was observed that CSP has no effect on FTF expression (FIG. 7, panel 2).

[1] = test system: S. mutans wild-type strains UA140 and UA159; assay: Growth inhibition of S. mutans culture by CSP pulse (96-well plate, cell density); format: cell-based
Protocol: Previously, it was assumed that quorum sensing may be an on/off type of switching event wherein when the quorum sensing molecule reaches a certain threshold, a new behavior is […] and vice versa. The inventors have unexpectedly discovered that the QS regulated gene expression is not an all-or-nothing type of system, but actually has a dose-dependent response. […] At a 100-fold higher concentration (400 μM), CSP inhibits the growth of a S. mutans culture by 50%.
The experiment was performed in a 96-well plate with triplicate wells for each treatment. Cell density was measured by using a plate reader (BioRad). The experiment was repeated three times. Numbers represent the average of the triplicate samples from one representative experiment. Variations between experiments were within 20%.
These experiments were designed to mimic the conditions of the dental hygiene regimen. Specifically, the bacteria were “pulsed” with CSP. The peptide was added for a mere 10 minutes, washed away and the incubation continued in the fresh medium. In this set-up the inhibitory effect persisted for a long time and became undetectable only after 16 hours of the culture growth. Competition experiments have also shown that a mere 3-hour advantage is sufficient to ensure that a resident species in a biofilm will out compete the newcomer.

[2] = test system: GTFB expression in the wild-type S. mutans; assay: Western blot of GTFB expression after addition of CSP to cultures; format: cell-based; settings: CSP added to fresh cultures at time of dilution, 1 to 8 mcg/mL; FIG. 7 panel 1
Protocol: as §2, §1, §3

For SGSLSTFFRLFNRSFTQALGK [CSP], the “bacterial cells localized to the attached layer” value (S. mutans) was “less than 8%”, the “inhibition of the gtf genes” value (gtfB gene of S. mutans; CSP 8 μg/ml (4 μM)) was “desired inhibition of the gtf genes” and the “gtfB reporter gene expression (luminescence)” value (gtfB gene of S. mutans; increasing concentrations of CSP, 10 minutes incubation at peak expression, FIG. 8) was “increasing concentrations of CSP increased the magnitude of repression”. The “FTF expression (Western blot)” value (FTF expression) was “no effect”, the “inhibition of growth of S. mutans culture” value ([1]; CSP 400 μM, 10 minute pulse, FIG. 12) was 50% and the “effect on cell division and viability” value ([1]; CSP 1.6 mM, 10 minute pulse, FIG. 12) was “cell division stops and cells begin to die”. For the same sequence, the “time of culture growth after which the inhibitory effect became undetectable” value ([1]; CSP added for 10 minutes, washed away, incubation in fresh medium) was 16 h and the “peak expression of GTFB (Western blot)” value [2] was “lowered proportionally to the amount of peptide added”.
